The values that follow come from patent US20220162182A1, “KINASE INHIBITOR COMPOUNDS AND COMPOSITIONS AND METHODS OF USE” (ICAHN SCHOOL OF MEDICINE AT MOUNT SINAI, priority 2018, published 2022).

For this assay, the target named is T1, DYRK1/DYRK1A (Homo sapiens, UniProt Q13627).
T1 construct: purchased Reaction Biology Corp
In words: DYRK1/DYRK1A IC50 assay (Reaction Biology Corp.). It counts as biochemical. Particulars: DYRK1/DYRK1A assay from Reaction Biology Corp.

For `O=c1[nH]c2ccc(-c3cncc(NCc4ccco4)c3)cc2[nH]1` [Compound 49a, 5-(5-((Furan-2-ylmethyl)amino)pyridin-3-yl)-1H-benzo[d]imidazol-2(3H)-one], the IC50 stood at 1.74 nM. The figure for `O=c1[nH]c2ccc(-c3cncc(NCc4cccs4)c3)cc2[nH]1` [Compound 49b, 5-(5-((Thiophen-2-ylmethyl)amino)pyridin-3-yl)-1H-benzo[d]imidazol-2(3H)-one] is 0.48 nM; for `O=c1[nH]c2ccc(-c3cncc(NCc4ncc[nH]4)c3)cc2[nH]1` [Compound 49c, 5-(5-(((1H-Imidazol-2-yl)methyl)amino)pyridin-3-yl)-1H-benzo[d]imidazol-2(3H)-one] it is 4.91 nM.

`O=c1[nH]c2ccc(-c3cncc(NCc4cc[nH]n4)c3)cc2[nH]1` [Compound 49e, 5-(5-(((1H-Pyrazol-3-yl)methyl)amino)pyridin-3-yl)-1H-benzo[d]imidazol-2(3H)-one] had an IC50 of 3.27 nM. To `O=c1[nH]c2ccc(-c3cncc(NCc4ncco4)c3)cc2[nH]1` [Compound 49f, 5-(5-((Oxazol-2-ylmethyl)amino)pyridin-3-yl)-1H-benzo[d]imidazol-2(3H)-one] belongs 4.03 nM; to `O=c1[nH]c2ccc(-c3cncc(CNc4ccccc4F)c3)cc2[nH]1` [Compound 52a, 5-(5-(((2-Fluorophenyl)amino)methyl)pyridin-3-yl)-1H-benzo[d]imidazol-2(3H)-one], 3.67 nM; to `O=c1[nH]c2ccc(-c3cncc(CNc4cccc(F)c4)c3)cc2[nH]1` [Compound 52b, 5-(5-(((3-Fluorophenyl)amino)methyl)pyridin-3-yl)-1H-benzo[d]imidazol-2(3H)-one], 1.31 nM. To `O=c1[nH]c2ccc(-c3cncc(CNc4ccc(F)cc4)c3)cc2[nH]1` [Compound 52c, 5-(5-(((4-Fluorophenyl)amino)methyl)pyridin-3-yl)-1H-benzo[d]imidazol-2(3H)-one] belongs 6.11 nM. Regarding `O=c1[nH]c2ccc(-c3cncc(CNc4ccccc4Cl)c3)cc2[nH]1` [Compound 52d, 5-(5-(((2-Chlorophenyl)amino)methyl)pyridin-3-yl)-1H-benzo[d]imidazol-2(3H)-one], the half-maximal inhibitory concentration (IC50) came out at 5.05 nM. To `COc1ccccc1NCc1cncc(-c2ccc3[nH]c(=O)[nH]c3c2)c1` [Compound 52g, 5-(5-(((2-Methoxyphenyl)amino)methyl)pyridin-3-yl)-1H-benzo[d]imidazol-2(3H)-one] belongs 2.72 nM; to `COc1cccc(NCc2cncc(-c3ccc4[nH]c(=O)[nH]c4c3)c2)c1` [Compound 52h, 5-(5-(((3-Methoxyphenyl)amino)methyl)pyridin-3-yl)-1H-benzo[d]imidazol-2(3H)-one], 2.26 nM. The figure for `COc1ccc(NCc2cncc(-c3ccc4[nH]c(=O)[nH]c4c3)c2)cc1` [Compound 52i, 5-(5-(((4-Methoxyphenyl)amino)methyl)pyridin-3-yl)-1H-benzo[d]imidazol-2(3H)-one] is 2.2 nM; for `CCn1c(=O)[nH]c2ccc(-c3cncc(NCc4ccccc4)c3)cc21` [Compound 61a, 6-(5-(Benzylamino)pyridin-3-yl)-1-ethyl-1H-benzo[d]imidazol-2(3H)-one] it is 1.41 nM. To `CC(C)n1c(=O)[nH]c2ccc(-c3cncc(NCc4ccccc4)c3)cc21` [Compound 61b, 6-(5-(Benzylamino)pyridin-3-yl)-1-isopropyl-1H-benzo[d]imidazol-2(3H)-one] belongs 13.8 nM. In turn, `O=c1[nH]c2ccc(-c3cncc(NCc4ccccc4)c3)cc2n1C1CC1` [Compound 61c, 6-(5-(Benzylamino)pyridin-3-yl)-1-cyclopropyl-1H-benzo[d]imidazol-2(3H)-one] gave an IC50 of 3.25 nM. The figure for `O=c1[nH]c2ccc(-c3cncc(NCc4ccccc4)c3)cc2n1C1CCCC1` [Compound 61d, 6-(5-(Benzylamino)pyridin-3-yl)-1-cyclopentyl-1H-benzo[d]imidazol-2(3H)-one] is 24 nM.

As a reminder, the IC50 is the midpoint of a concentration-inhibition curve.
